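Each compound was tested at five concentrations against cells in 96-well plates for 48 hours. At the TGI there is no net growth.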
Experiments:
Assay in all cases: NCI anticancer screen, dose series, 48 h
HOP-62 NSCLC = test system: HOP-62 NSCLC
TK-10 renal = test system: TK-10 renal
SNB-75 CNS = test system: SNB-75 CNS
CCRF-CEM leukemia = test system: CCRF-CEM leukemia
M14 melanoma = test system: M14 melanoma
MDA-N = test system: MDA-N
OVCAR-5 ovarian = test system: OVCAR-5 ovarian
MOLT-4 leukemia = test system: MOLT-4 leukemia
NCI-H460 lung = test system: NCI-H460 lung
DU-145 prostate = test system: DU-145 prostate
MCF7 breast = test system: MCF7 breast
RXF 393 renal = test system: RXF 393 renal
MALME-3M melanoma = test system: MALME-3M melanoma
NCI/ADR-RES ovarian = test system: NCI/ADR-RES ovarian
K-562 leukemia = test system: K-562 leukemia
UACC-257 melanoma = test system: UACC-257 melanoma
T-47D breast = test system: T-47D breast
SR leukemia = test system: SR leukemia
OVCAR-4 ovarian = test system: OVCAR-4 ovarian
HL-60(TB) leukemia = test system: HL-60(TB) leukemia
ACHN renal = test system: ACHN renal
NCI-H226 lung = test system: NCI-H226 lung
SNB-19 CNS = test system: SNB-19 CNS
SK-MEL-2 melanoma = test system: SK-MEL-2 melanoma
HOP-92 NSCLC = test system: HOP-92 NSCLC
HCT-15 colon = test system: HCT-15 colon
SF-295 CNS = test system: SF-295 CNS
SK-MEL-5 melanoma = test system: SK-MEL-5 melanoma
A549 NSCLC = test system: A549 NSCLC
OVCAR-3 ovarian = test system: OVCAR-3 ovarian
COLO 205 colon = test system: COLO 205 colon
U251 CNS = test system: U251 CNS
RPMI-8226 leukemia = test system: RPMI-8226 leukemia
SF-539 CNS = test system: SF-539 CNS
KM12 colon = test system: KM12 colon
UACC-62 melanoma = test system: UACC-62 melanoma
LOX IMVI melanoma = test system: LOX IMVI melanoma
MDA-MB-231 breast = test system: MDA-MB-231 breast
CAKI-1 renal = test system: CAKI-1 renal
OVCAR-8 ovarian = test system: OVCAR-8 ovarian
SK-MEL-28 melanoma = test system: SK-MEL-28 melanoma
A498 renal = test system: A498 renal
PC-3 prostate = test system: PC-3 prostate
HS 578T breast = test system: HS 578T breast
HCT-116 colon = test system: HCT-116 colon
SF-268 CNS = test system: SF-268 CNS
BT-549 breast = test system: BT-549 breast
MDA-MB-435 = test system: MDA-MB-435
IGROV1 ovarian = test system: IGROV1 ovarian
SK-OV-3 ovarian = test system: SK-OV-3 ovarian
SN12C renal = test system: SN12C renal
NCI-H23 lung = test system: NCI-H23 lung
786-0 renal = test system: 786-0 renal
HT29 colon = test system: HT29 colon
SW-620 colon = test system: SW-620 colon
UO-31 renal = test system: UO-31 renal
EKVX NSCLC = test system: EKVX NSCLC
NCI-H522 lung = test system: NCI-H522 lung
HCC-2998 colon = test system: HCC-2998 colon

O=C1C=CC2(O[C@@H](Cc3ccccc3)[C@H](Cc3ccccc3)O2)C(SC(=O)c2ccccc2)C1 (some centres undefined)
TGI (HOP-62 NSCLC): 2.68 µM
TGI (TK-10 renal): 4.09 µM
TGI (SNB-75 CNS): 3.41 µM
TGI (CCRF-CEM leukemia): 1.15 µM
TGI (M14 melanoma): 2.99 µM
TGI (MDA-N): 5.22 µM
TGI (OVCAR-5 ovarian): 1.74 µM
TGI (MOLT-4 leukemia): 0.651 µM
TGI (NCI-H460 lung): 9.56 µM
TGI (DU-145 prostate): 11.8 µM
TGI (MCF7 breast): 2.12 µM
TGI (RXF 393 renal): 0.325 µM
TGI (MALME-3M melanoma): 5.06 µM
TGI (NCI/ADR-RES ovarian): 4.06 µM
TGI (K-562 leukemia): 89.4 µM
TGI (UACC-257 melanoma): 2.55 µM
TGI (T-47D breast): 11.3 µM
TGI (SR leukemia): 0.807 µM
TGI (OVCAR-4 ovarian): 4.4 µM
TGI (HL-60(TB) leukemia): 4.82 µM
TGI (ACHN renal): 2.43 µM
TGI (NCI-H226 lung): 3.2 µM
TGI (SNB-19 CNS): 7.28 µM
TGI (SK-MEL-2 melanoma): 3.46 µM
TGI (HOP-92 NSCLC): 3.05 µM
TGI (HCT-15 colon): 1.71 µM
TGI (SF-295 CNS): 4.28 µM
TGI (SK-MEL-5 melanoma): 3.16 µM
TGI (A549 NSCLC): 16.1 µM
TGI (OVCAR-3 ovarian): 2.24 µM
TGI (COLO 205 colon): 3.14 µM
TGI (U251 CNS): 2.56 µM
TGI (RPMI-8226 leukemia): 1.24 µM
TGI (SF-539 CNS): 3.04 µM
TGI (KM12 colon): 6.82 µM
TGI (UACC-62 melanoma): 5.04 µM
TGI (LOX IMVI melanoma): 1.46 µM
TGI (MDA-MB-231 breast): 6.39 µM
TGI (CAKI-1 renal): 3.71 µM
TGI (OVCAR-8 ovarian): 0.549 µM
TGI (SK-MEL-28 melanoma): 3.44 µM
TGI (A498 renal): 16.2 µM
TGI (PC-3 prostate): 3.69 µM
TGI (HS 578T breast): 4.57 µM
TGI (HCT-116 colon): 0.375 µM
TGI (SF-268 CNS): 2.44 µM
TGI (BT-549 breast): 1.11 µM
TGI (MDA-MB-435): 5.46 µM
TGI (IGROV1 ovarian): 2.54 µM
TGI (SK-OV-3 ovarian): 8.04 µM
TGI (SN12C renal): 3.97 µM
TGI (NCI-H23 lung): 4.67 µM
TGI (786-0 renal): 0.399 µM
TGI (HT29 colon): 3.08 µM
TGI (SW-620 colon): 0.858 µM
TGI (UO-31 renal): 1.87 µM

Cc1ccnc(NC(=S)Nc2ccccc2Cl)c1
TGI (EKVX NSCLC): > 100 µM
TGI (HOP-62 NSCLC): > 100 µM
TGI (TK-10 renal): > 100 µM
TGI (SNB-75 CNS): 71.7 µM
TGI (CCRF-CEM leukemia): > 100 µM
TGI (M14 melanoma): > 100 µM
TGI (MDA-N): > 100 µM
TGI (OVCAR-5 ovarian): > 100 µM
TGI (MOLT-4 leukemia): > 100 µM
TGI (NCI-H460 lung): > 100 µM
TGI (DU-145 prostate): > 100 µM
TGI (MCF7 breast): > 100 µM
TGI (RXF 393 renal): > 100 µM
TGI (MALME-3M melanoma): > 100 µM
TGI (NCI/ADR-RES ovarian): > 100 µM
TGI (K-562 leukemia): > 100 µM
TGI (UACC-257 melanoma): > 100 µM
TGI (T-47D breast): > 100 µM
TGI (SR leukemia): > 100 µM
TGI (OVCAR-4 ovarian): > 100 µM
TGI (HL-60(TB) leukemia): > 100 µM
TGI (NCI-H226 lung): > 100 µM
TGI (SNB-19 CNS): > 100 µM
TGI (SK-MEL-2 melanoma): > 100 µM
TGI (HCT-15 colon): > 100 µM
TGI (SF-295 CNS): > 100 µM
TGI (SK-MEL-5 melanoma): > 100 µM
TGI (A549 NSCLC): > 100 µM
TGI (OVCAR-3 ovarian): > 100 µM
TGI (COLO 205 colon): > 100 µM
TGI (U251 CNS): > 100 µM
TGI (RPMI-8226 leukemia): > 100 µM
TGI (SF-539 CNS): > 100 µM
TGI (KM12 colon): > 100 µM
TGI (UACC-62 melanoma): > 100 µM
TGI (LOX IMVI melanoma): > 100 µM
TGI (MDA-MB-231 breast): 45.7 µM
TGI (CAKI-1 renal): > 100 µM
TGI (OVCAR-8 ovarian): > 100 µM
TGI (SK-MEL-28 melanoma): > 100 µM
TGI (A498 renal): > 100 µM
TGI (PC-3 prostate): > 100 µM
TGI (HS 578T breast): > 100 µM
TGI (HCT-116 colon): > 100 µM
TGI (SF-268 CNS): > 100 µM
TGI (BT-549 breast): > 100 µM
TGI (MDA-MB-435): > 100 µM
TGI (IGROV1 ovarian): > 100 µM
TGI (SK-OV-3 ovarian): > 100 µM
TGI (NCI-H522 lung): > 100 µM
TGI (SN12C renal): > 100 µM
TGI (786-0 renal): > 100 µM
TGI (HT29 colon): > 100 µM
TGI (SW-620 colon): > 100 µM
TGI (UO-31 renal): > 100 µM

O=C([C@H](O)[C@@H](O)c1ccc(Br)cc1)C12CC3CC(CC(C3)C1)C2
TGI (EKVX NSCLC): > 76.9 µM
TGI (HOP-62 NSCLC): 26.6 µM
TGI (TK-10 renal): > 47.8 µM
TGI (SNB-75 CNS): 8.2 µM
TGI (CCRF-CEM leukemia): > 30.8 µM
TGI (M14 melanoma): 37.5 µM
TGI (MDA-N): > 100 µM
TGI (OVCAR-5 ovarian): > 72.9 µM
TGI (MOLT-4 leukemia): > 100 µM
TGI (NCI-H460 lung): 16.1 µM
TGI (DU-145 prostate): 51.8 µM
TGI (MCF7 breast): > 39.7 µM
TGI (RXF 393 renal): > 100 µM
TGI (MALME-3M melanoma): 51.4 µM
TGI (NCI/ADR-RES ovarian): > 57.1 µM
TGI (K-562 leukemia): > 100 µM
TGI (UACC-257 melanoma): > 43.3 µM
TGI (T-47D breast): > 29.3 µM
TGI (SR leukemia): > 100 µM
TGI (OVCAR-4 ovarian): > 100 µM
TGI (HL-60(TB) leukemia): > 26.5 µM
TGI (ACHN renal): > 54.1 µM
TGI (NCI-H226 lung): > 85.7 µM
TGI (SNB-19 CNS): > 90.4 µM
TGI (SK-MEL-2 melanoma): > 31.6 µM
TGI (HCT-15 colon): > 75 µM
TGI (SF-295 CNS): 47.1 µM
TGI (SK-MEL-5 melanoma): > 56.2 µM
TGI (A549 NSCLC): 97 µM
TGI (OVCAR-3 ovarian): 32.4 µM
TGI (HCC-2998 colon): > 38.9 µM
TGI (COLO 205 colon): > 40.2 µM
TGI (U251 CNS): > 36.4 µM
TGI (RPMI-8226 leukemia): > 100 µM
TGI (SF-539 CNS): > 28.7 µM
TGI (KM12 colon): > 74.9 µM
TGI (UACC-62 melanoma): 25.8 µM
TGI (LOX IMVI melanoma): > 100 µM
TGI (MDA-MB-231 breast): > 43 µM
TGI (CAKI-1 renal): 59.2 µM
TGI (OVCAR-8 ovarian): > 100 µM
TGI (SK-MEL-28 melanoma): > 68.6 µM
TGI (A498 renal): 32.5 µM
TGI (PC-3 prostate): 24.5 µM
TGI (HS 578T breast): > 85.9 µM
TGI (HCT-116 colon): > 51.9 µM
TGI (SF-268 CNS): > 70.6 µM
TGI (BT-549 breast): 24 µM
TGI (MDA-MB-435): > 56.4 µM
TGI (IGROV1 ovarian): 12.9 µM
TGI (SK-OV-3 ovarian): > 75.2 µM
TGI (NCI-H522 lung): > 57.7 µM
TGI (SN12C renal): > 65.8 µM
TGI (NCI-H23 lung): > 37.9 µM
TGI (786-0 renal): 45.9 µM
TGI (HT29 colon): > 61.9 µM
TGI (SW-620 colon): > 38.4 µM
TGI (UO-31 renal): > 55.2 µM

— PubChem BioAssay (NCI)
